Results: patent publication US8507510B2, “Sulfoximine-substituted pyrimidines as CDK- and/or VEGF inhibitors, their production and use as pharmaceutical agents” (Bayer Intellectual Property GmbH, priority 2003, dated 2013)

How the values were obtained:
MaTu-ADR = assay: Proliferation assay, MaTu-ADR; type: cell-based, human; conditions: MaTu-ADR cells, 4 days, crystal violet
Description: (§1) Cultivated human tumor cells (MCF7, […] human breast cancer cells, related to ATCC HTB22; NCI-H460, human non-small-cell lung cancer cells, ATCC HTB-177, HCT 116, human colon cancer cells, ATCC CCL-247; DU 145, hormone-independent human prostate cancer cells, ATCC HTB-81; MaTu-MDR, hormone-independent, multiple pharmaceutical agent-resistant human breast cancer cells, EPO-GmbH, Berlin) were flattened out at a density of about 5000 cells/measuring point, depending on the growth rate of the respective cells, in a 96-well multititer plate in 200 μl of the corresponding growth medium. After 24 hours, the cells of one plate (zero-point plate) were colored with crystal violet (see below), while the medium of the other plates was replaced by fresh culture medium (200 μl), to which the test substances were added in various concentrations (0 μm, as well as in the range of 0.01-30 μm; the final concentration of the solvent dimethyl sulfoxide was 0.5%). The cells were incubated for 4 days in the presence of test substances. The cell proliferation was determined by coloring the cells with crystal violet: the cells were fixed by adding 20 μl/measuring point of an 11% glutaric aldehyde solution for 15 minutes at room temperature. After three washing cycles of the fixed cells with water, the plates were dried at room temperature. The cells were colored by adding 100 μl/measuring point of a 0.1% crystal violet solution (the pH was set at 3 by adding acetic acid). After three washing cycles of the colored cells with water, the plates were dried at room temperature. The dye was dissolved by adding 100 μl/measuring point of a 10% acetic acid solution. The extinction was determined by photometry at a wavelength of 595 nm The change of cell growth, in percent, was calculated by normalization of the measured values to the extinction values of the zero-point plate (=0%) and the extinction of the untreated (0 μm) cells (=100%).

DU145 = assay: Proliferation assay, DU145; type: cell-based, human; conditions: DU145 cells, 4 days, crystal violet
Description: as §1

MCF7 = assay: Proliferation assay, MCF7; type: cell-based, human; conditions: MCF7 cells, 4 days, crystal violet
Description: as §1

H460 = assay: Proliferation assay, H460; type: cell-based, human; conditions: H460 cells, 4 days, crystal violet
Description: as §1

CDK2/CycE = CDK2/CycE (Homo sapiens (Human), UniProt P24941); assay: CDK2/CycE kinase assay; type: biochemical; conditions: histone IIIS substrate, 0.5 μm ATP
Procedure: Recombinant CDK2- and CycE-GST-fusion proteins, purified from baculovirus-infected insect cells (Sf9), were purchased by ProQinase GmbH, Freiburg. Histone IIIs, which was used as a kinase substrate, was purchased by the Sigma Company.
CDK2/CycE (50 ng/measuring point) was incubated for 15 minutes at 22° C. in the presence of various concentrations of test substances (0 μm, as well as within the range of 0.01-100 μm) in assay buffer [50 mmol of tris/HCl, pH 8.0, 10 mmol of MgCl2, 0.1 mmol of Na ortho-vanadate, 1.0 mmol of dithiothreitol, 0.5 μm of adenosine triphosphate (ATP), 10 μg/measuring point of histone IIIS, 0.2 μCi/measuring point of ^33P-gamma ATP, 0.05% NP40, 12.5% dimethyl sulfoxide]. The reaction was stopped by adding EDTA solution (250 mmol, pH 8.0, 14 μl/measuring point).
From each reaction batch, 10 μl was applied to P30 filter strips (Wallac Company), and non-incorporated ^33P-ATP was removed by subjecting the filter strips to three washing cycles for 10 minutes each in 0.5% phosphoric acid. After the filter strips were dried for one hour at 70° C., the filter strips were covered with scintillator strips (MeltiLex™ A, Wallac Company) and baked for one hour at 90° C. The amount of incorporated ^33P (substrate phosphorylation) was determined by scintillation measurement in a gamma-radiation measuring device (Wallac).

SMILES | IC50 (DU145; Homo sapiens, DU-145, 96 h) [nM] | IC50 (MCF7; Homo sapiens, MCF7, 96 h) [nM] | IC50 (MCF7) [nM] | further results
C[C@@H](Nc1nc(Nc2ccc(S(=N)(=O)CCO)cc2)ncc1Br)C(C)(C)O (mixture of isomers) [Example 1.14, (RS)-S-[4-({5-bromo-4-[(R)-(2-hydroxy-1,2-dimethylpropyl)amino]pyrimidin-2-yl}amino)phenyl]-S-(2-hydroxyethyl)-sulfoximide] | 90 | – | – | IC50 (MaTu-ADR; Homo sapiens, 96 h): 110 nM
C[C@@H](O)[C@@H](C)Nc1nc(Nc2ccc(S(=N)(=O)CCO)cc2)ncc1Br (mixture of isomers) [Example 1.18, (RS)-S-[4-({5-bromo-4-[(1R,2R)-(2-hydroxy-1-methyl-propyl)amino]pyrimidin-2-yl}amino)phenyl]-S-(2-hydroxyethyl)sulfoximide] | – | < 100 | – | –
COc1cc(Nc2ncc(Br)c(N[C@H](C)[C@@H](C)O)n2)ccc1S(C)(=N)=O (mixture of isomers) [Example 1.26, (RS)-S-[4-({5-bromo-4-[(1R,2R)-(2-hydroxy-1-methylpropyl)amino]pyrimidin-2-yl}amino)-2-methoxyphenyl]-S-methyl sulfoximide] | – | – | 60 | –
CN=S(C)(=O)c1ccc(Nc2ncc(Br)c(N[C@H](C)[C@@H](C)O)n2)cc1 (mixture of isomers) [Example 1.29, (RS)-S-[4-({5-bromo-4-[(1R,2R)-(2-hydroxy-1-methylpropyl)amino]pyrimidin-2-yl}amino)phenyl]-N,S-dimethyl-sulfoximide] | – | – | 170 | –
CN=S(C)(=O)c1ccc(Nc2ncc(Br)c(N[C@H](C)[C@@H](C)O)n2)cc1 (mixture of isomers) [Example 1.30, (RS)-S-[4-({5-bromo-4-[(1R,2R)-(2-hydroxy-1-methylpropyl)amino]pyrimidin-2-yl}amino)phenyl]-N,S-dimethyl-sulfoximide] | – | – | 170 | –
COC[C@@H](Nc1nc(Nc2ccc(S(C)(=N)=O)cc2)ncc1Br)[C@@H](C)O (mixture of isomers) [Example 1.46, (RS)-S-{4-[(5-bromo-4-{[(1R,2R)-2-hydroxy-1-(methoxymethyl)-propyl]amino}pyrimidin-2-yl)amino]phenyl}-S-methyl sulfoximide] | 170 | 200 | – | IC50 (MaTu-ADR; Homo sapiens, 96 h): 200 nM; IC50 (H460; Homo sapiens, NCI-H460, 96 h): 110 nM
CCS(=N)(=O)c1ccc(Nc2ncc(Br)c(N[C@H](COC)[C@@H](C)O)n2)cc1 (mixture of isomers) [Example 1.48, (RS)—S-{4-[(5-bromo-4-{[(1R,2R)-2-hydroxy-1-(methoxymethyl)-propyl]amino}pyrimidin-2-yl)amino]phenyl}-S-ethyl sulfoximide] | – | 300 | – | –
CCS(=N)(=O)c1ccc(Nc2ncc(Br)c(N[C@H](COC)[C@@H](C)O)n2)cc1 (mixture of isomers) [Example 1.49, (RS)-S-{4-[(5-bromo-4-{[(1R,2R)-2-hydroxy-1-(methoxymethyl)-propyl]amino}pyrimidin-2-yl)amino]phenyl}-S-ethyl sulfoximide] | – | – | 300 | IC50 (MaTu-ADR): 600 nM; IC50 (H460): 400 nM; IC50 (DU145): 300 nM
CCS(=N)(=O)c1ccc(Nc2ncc(Br)c(N[C@H](C)[C@@H](C)O)n2)cc1 (mixture of isomers) [Example 1.51, (RS)—S-[4-({5-bromo-4-[(1R,2R)-(2-hydroxy-1-methylpropyl)amino]pyrimidin-2-yl}amino)phenyl]-S-ethyl sulfoximide] | – | 80 | – | –
CCS(=N)(=O)c1ccc(Nc2ncc(Br)c(N[C@H](C)[C@@H](C)O)n2)cc1 (mixture of isomers) [Example 1.52, (RS)-S-[4-({5-bromo-4-[(1R,2R)-(2-hydroxy-1-methylpropyl)amino]pyrimidin-2-yl}amino)phenyl]-S-ethyl sulfoximide] | – | – | < 100 | –
CCS(=N)(=O)c1ccc(Nc2ncc(Br)c(N[C@H](C)C(C)(C)O)n2)cc1 (mixture of isomers) [Example 1.54, (RS)—S-[4-({5-bromo-4-[(R)-(2-hydroxy-1,2-dimethylpropyl)amino]pyrimidin-2-yl}amino)phenyl]-S-ethyl sulfoximide] | 190 | – | 110 | IC50 (H460): 120 nM
CCS(=N)(=O)c1ccc(Nc2ncc(Br)c(N[C@H](C)C(C)(C)O)n2)cc1 (mixture of isomers) [Example 1.55, (RS)-S-[4-({5-bromo-4-[(R)-(2-hydroxy-1,2-dimethylpropyl)amino]pyrimidin-2-yl}amino)phenyl]-S-ethyl sulfoximide] | – | – | 300 | IC50 (MaTu-ADR): 150 nM; IC50 (H460): 300 nM; IC50 (DU145): 300 nM
Cc1cc(Nc2ncc(Br)c(N[C@H](C)C(C)(C)O)n2)ccc1S(C)(=N)=O (mixture of isomers) [Example 1.57, (RS)—S-[4-({5-bromo-4-[(R)-(2-hydroxy-1,2-dimethylpropyl)amino]pyrimidin-2-yl}amino)-2-methylphenyl]-S-methyl sulfoximide] | – | – | – | IC50 (MaTu-ADR): 90 nM; IC50 (H460): 120 nM; IC50 (DU145): 110 nM
Cc1cc(Nc2ncc(Br)c(N[C@H](C)C(C)(C)O)n2)ccc1S(C)(=N)=O (mixture of isomers) [Example 1.58, (RS)-S-[4-({5-bromo-4-[(R)-(2-hydroxy-1,2-dimethylpropyl)amino]pyrimidin-2-yl}amino)-2-methylphenyl]-S-methyl sulfoximide] | – | – | 60 | IC50 (MaTu-ADR): 40 nM; IC50 (H460): 30 nM; IC50 (DU145): 30 nM
C[C@@H](O)[C@@H](C)Nc1nc(Nc2ccc(S(=N)(=O)CCO)cc2)ncc1Br (single isomer, unassigned) [Example 1.19] | – | < 100 | – | –
COc1cc(Nc2ncc(Br)c(N[C@H](C)[C@@H](C)O)n2)ccc1S(C)(=N)=O (single isomer, unassigned) [Example 1.27] | 130 | 60 | – | IC50 (H460; Homo sapiens, NCI-H460, 96 h): 20 nM
C[C@@H](Nc1nc(Nc2ccc(S(C)(=N)=O)cc2)ncc1Br)C(C)(C)O (single isomer, unassigned) [Example 1.42] | 170 | 150 | – | IC50 (MaTu-ADR; Homo sapiens, 96 h): < 100 nM; IC50 (H460; Homo sapiens, NCI-H460, 96 h): < 100 nM
COC[C@@H](Nc1nc(Nc2ccc(S(C)(=N)=O)cc2)ncc1Br)[C@@H](C)O (single isomer, unassigned) [Example 1.47] | 600 | 600 | – | IC50 (MaTu-ADR; Homo sapiens, 96 h): 800 nM; IC50 (H460; Homo sapiens, NCI-H460, 96 h): 600 nM; IC50 (CDK2/CycE): 6 nM
CCS(=N)(=O)c1ccc(Nc2ncc(Br)c(N[C@H](COC)[C@@H](C)O)n2)cc1 (single isomer, unassigned) [Example 1.50] | – | 1200 | – | –
CCS(=N)(=O)c1ccc(Nc2ncc(Br)c(N[C@H](C)[C@@H](C)O)n2)cc1 (single isomer, unassigned) [Example 1.53] | – | 300 | – | IC50 (CDK2/CycE): 4 nM
CCS(=N)(=O)c1ccc(Nc2ncc(Br)c(N[C@H](C)C(C)(C)O)n2)cc1 (single isomer, unassigned) [Example 1.56] | – | 20 | – | IC50 (MaTu-ADR; Homo sapiens, 96 h): 50 nM; IC50 (H460; Homo sapiens, NCI-H460, 96 h): 100 nM
Cc1cc(Nc2ncc(Br)c(N[C@H](C)C(C)(C)O)n2)ccc1S(C)(=N)=O (single isomer, unassigned) [Example 1.59] | < 100 | 110 | – | IC50 (MaTu-ADR; Homo sapiens, 96 h): < 100 nM; IC50 (H460; Homo sapiens, NCI-H460, 96 h): < 100 nM
